Where two headings read alike, the source gives them in different places. Square brackets hold non-standard residues; d marks the D form. Peptide text beside a SMILES is read from it. * marks the point of attachment. dPhe(4-Cl) = N[C@H](Cc1ccc(Cl)cc1)C(=O)O; d2Nal = N[C@H](Cc1ccc2ccccc2c1)C(=O)O; d(hCit) = NC(=O)NCCCC[C@@H](N)C(=O)O; Lys(iPr) = CC(C)NCCCC[C@H](N)C(=O)O; dCit = NC(=O)NCCC[C@@H](N)C(=O)O; tBuAla = CC(C)(C)C[C@H](N)C(=O)O; d3Pal = N[C@H](Cc1cccnc1)C(=O)O; Nicotinoyl = O=C(c1cccnc1)*
How the values were obtained:
LH-RH receptors [1] = biological target: T1, LH-RH receptors (Rattus norvegicus, UniProt P30969); test: biochemical
T1 sequence (P30969 1-327): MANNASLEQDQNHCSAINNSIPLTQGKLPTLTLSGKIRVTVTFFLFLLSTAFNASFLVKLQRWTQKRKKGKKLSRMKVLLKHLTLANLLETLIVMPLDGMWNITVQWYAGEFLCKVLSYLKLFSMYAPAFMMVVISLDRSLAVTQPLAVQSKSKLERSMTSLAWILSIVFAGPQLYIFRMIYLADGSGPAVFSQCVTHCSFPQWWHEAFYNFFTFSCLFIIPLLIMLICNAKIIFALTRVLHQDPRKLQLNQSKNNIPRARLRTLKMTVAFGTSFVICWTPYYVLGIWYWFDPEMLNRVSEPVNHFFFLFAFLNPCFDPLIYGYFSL

LH-RH receptors [2] = biological target: T1, LH-RH receptors
[3] = biological target: LH-RH receptors (membrane fractions of pituitaries from female Sprague Dawley rats) (rat (female Sprague Dawley)) (UniProt P30969); test: competition with [125I]-buserelin, rat pituitary membranes
[4] = biological target: LH-RH receptors (membrane fractions of pituitaries from female Sprague Dawley rats) (rat (female Sprague Dawley)) (UniProt P30969); test: competition with [125I]-buserelin, rat pituitary membranes; Ki by Cheng-Prusoff

Molecule	Ki (LH-RH receptors [1])	% of inhibition of ovulation (LH-RH receptors [2]; 0.5 μg/rat s.c.)	% of inhibition of ovulation (LH-RH receptors [2]; 1 μg/rat s.c.)	% of inhibition of ovulation (LH-RH receptors [2]; 0.25 μg/rat s.c.)	pKi [3]	pKi [4]	also measured
CC(=O)N[C@H](Cc1ccc2ccccc2c1)C(=O)N[C@H](Cc1ccc(Cl)cc1)C(=O)N[C@H](Cc1cccnc1)C(=O)N[C@@H](CO)C(=O)N[C@@H](CCCCNC(=O)c1cccnc1)C(=O)N[C@H](CCCCNC(=O)c1cccnc1)C(=O)N[C@@H](CC(C)C)C(=O)N[C@@H](CCCCNC(C)C)C(=O)N1CCC[C@H]1C(=O)N[C@H](C)C(N)=O [Antide, reference compound] (Ac-[d2Nal][dPhe(4-Cl)][d3Pal]SK(Nicotinoyl)[dK](Nicotinoyl)L[Lys(iPr)]P[dA]-NH2)	0.692 nM	20%	69%				% of inhibition of ovulation (LH-RH receptors [2]; 2.5 μg/rat s.c.): 67%; % of inhibition of ovulation (LH-RH receptors [2]; 5 μg/rat s.c.): 100%; % of inhibition of ovulation (LH-RH receptors [2]; 10 μg/rat s.c.): 100%
CC(=O)N[C@H](Cc1ccc2ccccc2c1)C(=O)N[C@H](Cc1ccc(Cl)cc1)C(=O)N[C@H](Cc1cccnc1)C(=O)N[C@@H](CO)C(=O)N[C@@H](CCCCNC(=O)c1cccnc1)C(=O)N[C@H](CCCCNC(=O)c1cccnc1)C(=O)N[C@@H](CC(C)(C)C)C(=O)N[C@@H](CCCCNC(C)C)C(=O)N1CCC[C@H]1C(=O)N[C@H](C)C(N)=O [Example 15, AcD-Nal-D-pClPhe-D-Pal-Ser-NicLys-D-NicLys-Npg-IprLys-Pro-D-Ala-NH2] (Ac-[d2Nal][dPhe(4-Cl)][d3Pal]SK(Nicotinoyl)[dK](Nicotinoyl)[tBuAla][Lys(iPr)]P[dA]-NH2)	0.589 nM	100%	80%	60%			% of inhibition of ovulation (LH-RH receptors [2]; 0.1 μg/rat s.c.): 0%
CC(=O)N[C@H](Cc1ccc2ccccc2c1)C(=O)N[C@H](Cc1ccc(Cl)cc1)C(=O)N[C@H](Cc1cccnc1)C(=O)N[C@@H](CO)C(=O)N[C@@H](Cc1ccc(O)cc1)C(=O)N[C@H](CCCNC(N)=O)C(=O)N[C@@H](CC(C)(C)C)C(=O)N[C@@H](CCCNC(=N)N)C(=O)N1CCC[C@H]1C(=O)N[C@H](C)C(N)=O [Example 16, AcD-Nal-D-pClPhe-D-Pal-Ser-Tyr-D-Cit-Npg-Arg-Pro-D-Ala-NH2] (Ac-[d2Nal][dPhe(4-Cl)][d3Pal]SY[dCit][tBuAla]RP[dA]-NH2)	0.0676 nM		100%	20%			Number of ovulating females/total number of treated females (LH-RH receptors [2]; 0.25 μg/rat s.c.): 4/5; Number of ovulating females/total number of treated females (LH-RH receptors [2]; 1 μg/rat s.c.): 0/5; antiovulatory activity in words (LH-RH receptors [2]; 1 μg/rat s.c.): maximal or sub-maximal activity
CC(=O)N[C@H](Cc1ccc2ccccc2c1)C(=O)N[C@H](Cc1ccc(Cl)cc1)C(=O)N[C@H](Cc1cccnc1)C(=O)N[C@@H](CO)C(=O)N[C@@H](Cc1ccc(O)cc1)C(=O)N[C@H](CCCNC(N)=O)C(=O)N[C@@H](CC(C)(C)C)C(=O)N[C@@H](CCCCNC(C)C)C(=O)N1CCC[C@H]1C(=O)N[C@H](C)C(N)=O [Example 17, AcD-Nal-D-pClPhe-D-Pal-Ser-Tyr-D-Cit-Npg-IprLys-Pro-D-Ala-NH2] (Ac-[d2Nal][dPhe(4-Cl)][d3Pal]SY[dCit][tBuAla][Lys(iPr)]P[dA]-NH2)	0.191 nM	43%	100%	80%			Number of ovulating females/total number of treated females (LH-RH receptors [2]; 0.25 μg/rat s.c.): 1/5; Number of ovulating females/total number of treated females (LH-RH receptors [2]; 0.5 μg/rat s.c.): 4/7; % of inhibition of ovulation (LH-RH receptors [2]; 0.75 μg/rat s.c.): 100%; Number of ovulating females/total number of treated females (LH-RH receptors [2]; 0.75 μg/rat s.c.): 0/7; Number of ovulating females/total number of treated females (LH-RH receptors [2]; 1 μg/rat s.c.): 0/12; antiovulatory activity in words (LH-RH receptors [2]; 1 μg/rat s.c.): maximal or sub-maximal activity; dose relation of the inhibition of ovulation, in words (LH-RH receptors [2]; dose range studied, s.c.): especially active, but its effects were not related to the dose
CC(=O)N[C@H](Cc1ccc2ccccc2c1)C(=O)N[C@H](Cc1ccc(Cl)cc1)C(=O)N[C@H](Cc1cccnc1)C(=O)N[C@@H](CO)C(=O)N[C@@H](Cc1ccc(O)cc1)C(=O)N[C@H](CCCCNC(N)=O)C(=O)N[C@@H](CC(C)(C)C)C(=O)N[C@@H](CCCCNC(C)C)C(=O)N1CCC[C@H]1C(=O)N[C@H](C)C(N)=O [Example 18, AcD-Nal-D-pClPhe-D-Pal-Ser-Tyr-D-HCit-Npg-IprLys-Pro-D-Ala-NH2] (Ac-[d2Nal][dPhe(4-Cl)][d3Pal]SY[d(hCit)][tBuAla][Lys(iPr)]P[dA]-NH2)	0.0851 nM		80%	20%			
CC(=O)N[C@H](Cc1ccc2ccccc2c1)C(=O)N[C@H](Cc1ccc(Cl)cc1)C(=O)N[C@H](Cc1cccnc1)C(=O)N[C@@H](CO)C(=O)N[C@@H](Cc1ccc(O)cc1)C(=O)N[C@H](CCCCNC(N)=O)C(=O)N[C@@H](CC(C)(C)C)C(=O)N[C@@H](CCCNC(=N)N)C(=O)N1CCC[C@H]1C(=O)N[C@H](C)C(N)=O [Example 19, AcD-Nal-D-pClPhe-D-Pal-Ser-Tyr-D-HCit-Npg-Arg-Pro-D-Ala-NH2] (Ac-[d2Nal][dPhe(4-Cl)][d3Pal]SY[d(hCit)][tBuAla]RP[dA]-NH2)	0.0776 nM		100%	40%			
Antide (peptide)					> 9 -log Ki	9.16 -log Ki	
Buserelin (peptide)					> 9 -log Ki	9.35 -log Ki	
Deslorelin (peptide)					> 9 -log Ki	9.9 -log Ki	
Histrelin (peptide)					> 9 -log Ki	9.98 -log Ki	

— US6586402B1, “LH-RH peptide analogues, their uses and pharmaceutical compositions containing them” (Laboratoire Theramex, priority 1997, dated 2003)
